The results in this text go back to patent US20030022251A1, “Gamma-secretase in vitro screening assay” (Boehringer Ingelheim Pharma KG, priority 2001, published 2003).

The target of test [1] is T1, γ-secretase (Homo sapiens, UniProt P49768).
T1 construct: HEK 293 cells stably transfected with swAPP were treated with the indicated concentrations of DAPT for 4 h; endogenous in cells; host or cells: HEK 293 cells stably transfected with swAPP695 (only the substrate is transfected; the γ-secretase is the cells' own)
Briefly: Analysis of secreted Aβ in conditioned media of HEK 293 swAPP cells (immunoprecipitation/immunoblotting with antibodies 3926/6E10). Type of test: cell-based. As to conditions: DAPT for 4 h, FIG. 1B lower panel. As for the experimental part: FIG. 1: Identification of in vivo produced CTFγ in human cells and mouse brain according to Example 1: (A) Membrane fractions of HEK 293 cells stably transfected with Swedish mutant βAPP695 (swAPP) were analyzed by combined immunoprecipitation/immunoblotting with antibody 6687 to the C-terminus of βAPP. Three βAPP CTFs were detected (C99 (=CTFβ), C83 (=CTFα), and the approximately 6 kDa CTFγ). The same βAPP CTFs including the approximately 6 kDa CTFγ were also observed by immunoblotting with antibody 6687 in mouse brain. (B) The γ-secretase inhibitor DAPT inhibits CTFγ production. HEK 293 cells stably transfected with swAPP were treated with the indicated concentrations of DAPT for 4 h. Upper and middle panel: Membrane fractions were prepared and analyzed for βAPP CTFs by combined immunoprecipitation/immunoblotting with antibody 6687. […] Lower panel: Conditioned media were analyzed for secreted Aβ by combined immunoprecipitation/immunoblotting with antibodies 3926/6E10. […] Membrane fractions from control cells expressing PS1 wt or cells stably expressing PS1 D385N were analyzed by combined immunoprecipitation/immunoblotting with antibody 6687. […]
Aβ was immunoprecipitated from conditioned media collected for 4 h with antibody 3926, separated on Tris-Tricine gels and detected by immunoblotting with antibody 6E10 using a chemiluminescent detection system (Tropix, USA).
A general note: In western blotting, separated proteins are transferred to a membrane and probed.

Test [2] addresses T1, γ-secretase. In words: Analysis of CTFγ and βAPP CTFs in membrane fractions of inhibitor-treated HEK 293 cells stably transfected with swAPP (immunoprecipitation/immunoblotting with antibody 6687). It is filed as cell-based. As to conditions: increasing concentrations of DAPT for 4 h. On the procedure:
FIG. 1: Identification of in vivo produced CTFγ in human cells and mouse brain according to Example 1: (A) Membrane fractions of HEK 293 cells stably transfected with Swedish mutant βAPP695 (swAPP) were analyzed by combined immunoprecipitation/immunoblotting with antibody 6687 to the C-terminus of βAPP. Three βAPP CTFs were detected (C99 (=CTFβ), C83 (=CTFα), and the approximately 6 kDa CTFγ). The same βAPP CTFs including the approximately 6 kDa CTFγ were also observed by immunoblotting with antibody 6687 in mouse brain. (B) The γ-secretase inhibitor DAPT inhibits CTFγ production. HEK 293 cells stably transfected with swAPP were treated with the indicated concentrations of DAPT for 4 h. Upper and middle panel: Membrane fractions were prepared and analyzed for βAPP CTFs by combined immunoprecipitation/immunoblotting with antibody 6687. […] Lower panel: Conditioned media were analyzed for secreted Aβ by combined immunoprecipitation/immunoblotting with antibodies 3926/6E10. […] (C) CTFγ production is dependent on biologically active presenilins. Membrane fractions from control cells expressing PS1 wt or cells stably expressing PS1 D385N were analyzed by combined immunoprecipitation/immunoblotting with antibody 6687. […]
CTFγ was analyzed by combined immunoprecipitation/westernblotting with antibody 6687 of membrane extracts from stably transfected HEK 293 cells or from mouse brain. […]

The subject of test [3] is γ-secretase. In words: In vitro generation of CTFγ from membrane preparations of HEK 293 cells stably transfected with swAPP (immunoblotting with antibody 6687). It is filed as biochemical, human. As to conditions: 250 nM DAPT. On the procedure:
FIG. 2: In vitro generation of CTFγ according to Example 1: (A) Time dependent in vitro production of CTFγ. Membrane preparations were incubated at 37° C. for the indicated time points. The reaction mixtures were then separated in a soluble fraction (S100; lower panel) and a pellet fraction (P100; upper panel) by ultracentrifugation. These fractions were immunoblotted with antibody 6687. Note the selective accumulation of CTFγ in the S100(lower panel) fraction after 1-2 h incubation time. Very minor amounts of CTFγ were detected in the P100 fraction, which may be due to sticking of the highly hydrophobic CTFγ to membranes or to contamination of the P100 fraction with minor amounts of soluble proteins. (B) Two independent γ-secretase inhibitors (DAPT and “Compound 1”) inhibit the in vitro production of CTFγ. Membrane preparations were incubated with (+) or without (−) 250 nM DAPT (left panel) or 50 μM CM256 (right panel). The S100 fractions of the reaction mixtures were immunoblotted with antibody 6687. […]
CTFγ was generated in vitro from membrane preparations of HEK 293 cells stably transfected with swAPP following previously described procedures (McLendon et al., 2000; Pinnix et al., 2001). […] Following SDS-PAGE on 10-20% Tris-Tricine gels (Invitrogen) samples were analyzed for CTFγ by immunoblotting with antibody 6687.

“Also recorded” adds a separate entry of the source.

Consider `C[C@H](NC(=O)Cc1cc(F)cc(F)c1)C(=O)N[C@H](C(=O)OC(C)(C)C)c1ccccc1` [DAPT, N-[N-(3,5-difluorophenacetyl)-L-alanyl]-S-phenylglycin t-butyl ester], for which the “secreted Aβ generation” value in test [1] was “dose dependent inhibition; also recorded: severely reduced Aβ production”. Also, in test [2] (FIG. 1B middle panel), the CTFγ generation result is listed as “significant block of CTFγ generation; also recorded: dose dependent inhibition of CTFγ generation”. The “CTFβ and CTFα levels” value in test [2] (FIG. 1B upper panel) is “build up of CTFβ and CTFα; also recorded: increase of βAPP CTFβ and CTFα”. In addition, the “in vitro CTFγ generation” value in test [3] (membrane preparations at 37° C., S100 fraction, FIG. 2B left panel) was “significantly reduce CTFγ generation; also recorded: efficiently reduced in vitro generation of CTFγ”. The “remaining in vitro CTFγ production” value in test [3] (membranes from cells expressing the inactive PS1 D385N mutation, FIG. 2D) is given as “reduces the remaining in vitro CTFγ production; also recorded: further reduced”.
